The structures appear in SMILES notation. Square brackets hold non-standard residues; d marks the D form. Peptide text beside a SMILES is read from it. dNMeF = CN[C@H](Cc1ccccc1)C(=O)O; dAbu = CC[C@@H](N)C(=O)O

The experiment concerns growth hormone release, rat pituitary cells. In words: in vitro test for the inhibition of growth hormone release in cultured rat pituitary cells. The experiment is classed as cell-based. The conditions noted are these: multiples or fractions of the effect of somatostatin (arbitrary value 1); rat pituitary cells after 4 days in culture, 4 hours incubation, graded doses; growth hormone by radioimmunoassay. As to the method: The instant cyclic hexapeptide analogs ofsomatostatin are tested and compared with the effects of somatostatin in an in vitro test for the inhibition of growth hormone. The test is described as follows:
"Rat pituitaries" were isolated according to the procedures of Vale and Grant `In vitro Pituitary Hormone Secretion Assay for Hypophysiopic Substances` in Methods in Enzymology. Vol.XXXVII, eds. O'Malley, B. W. and Hardman, J. G. (Academic Press, Inc., New York) pp.5-93 (1975).
"After 4 days in culture, the cells were washed and incubated for 4 hours in Dulbecco-modified Eagle's medium in the presence or absence of graded doses of each analog of somatostatin. The medium was then collected for subsequent growth hormone determination by a double antibody radioimmunoassay for rat growth hormone."
The test results for some of the compounds of this invention are recorded below with the results for somatostatin listed first and given the arbitrary value of 1. The results for the instant compounds are given as multiples or fractions of the effect of somatostatin. The first of the instant compounds listed is the compound prepared in Examples 1-5. The compound is written slightly different, however, to conform to the order of the amino acids found in somatostatin.
On to `CC(C)[C@H]1NC(=O)[C@@H](Cc2ccccc2)N(C)C(=O)[C@@H](C)NC(=O)[C@@H](Cc2ccccc2)NC(=O)[C@@H](Cc2c[nH]c3ccccc23)NC(=O)[C@H](CCCCN)NC1=O` [Cyclo-(D-Ala--N--Me--D-Phe--D-Val--L-Lys--D-Trp--D-Phe)] (cyclo(K[dW][dF][dA][dNMeF][dV])), for which the “Growth Hormone Release Inhibition In Vitro” value was 0.3. For `CC[C@H]1NC(=O)[C@@H](Cc2ccc(O)cc2)NC(=O)[C@@H](Cc2c[nH]c3ccccc23)NC(=O)[C@H](CCCCN)NC(=O)[C@@H](C(C)C)NC(=O)[C@@H](Cc2ccccc2)N(C)C1=O` [Cyclo-(D-Abu--N--Me--D-Phe--D-Val--L-Lys--D-Trp--D-Tyr)] (cyclo(K[dW][dY][dAbu][dNMeF][dV])) the value was 2.4; for `C[C@H](O)[C@H]1NC(=O)[C@@H](Cc2ccccc2)N(C)C(=O)[C@@H](C)NC(=O)[C@@H](Cc2ccccc2)NC(=O)[C@@H](Cc2c[nH]c3ccccc23)NC(=O)[C@H](CCCCN)NC1=O` [Cyclo-(D-Ala--N--Me--D-Phe--D-Thr--L-Lys--D-Trp--D-Phe)] (cyclo(K[dW][dF][dA][dNMeF][dT])), 0.88; for `C[C@H](O)[C@H]1NC(=O)[C@@H](Cc2ccccc2)N(C)C(=O)[C@@H](C)NC(=O)[C@@H](Cc2ccccc2)NC(=O)[C@H](Cc2c[nH]c3ccccc23)NC(=O)[C@@H](CCCCN)NC1=O` [Cyclo-(D-Ala--N--Me--D-Phe--D-Thr--D-Lys--L-Trp--D-Phe)] (cyclo(W[dF][dA][dNMeF][dT][dK])), 0.27.

Values taken from patent publication US4360516A, “Modified D-retro cyclic hexapeptide somatostatin analogs” (Merck & Co., Inc., priority 1981, dated 1982).
